Results taken from patent publication US20100034839A1, “METHODS FOR TREATING VIRAL DISORDERS” (priority 2008, published 2010).
No end group written: not given here. *: point of attachment. Biotin = O=C1N[C@H]2[C@H](CS[C@H]2CCCCC(=O)*)N1

What was measured:
[1] = test system: B cell surface CLIP; assay: B cell surface CLIP after 2-Deoxyglucose and dichloroacetate (FIG. 4); format: cell-based
[2] = test system: mouse splenic B cells; assay: TLR activation of mouse splenic B cells: ectopic CLIP in MHC class II; format: cell-based; conditions: for exogenous CLIP expression on activated mouse B cells: treatment in vitro with Toll ligand, FIG. 12d
Procedure: FIG. 12 depicts TLR activation of mouse splenic B cells results in ectopic CLIP in MHC class II. FIG. 12a: LPS activation of spleen cells from B6.129 mice (H-2b). B cells are detected by staining with PE conjugated anti-mouse B220, shown on Y-axis, versus staining with 15G4-FITC anti-mouse CLIP/I-Ab, as shown on the X-axis. A representative of four experiments at unique time points, 0 to 72 hours by 24-hour increments, left to right, is shown. FIG. 12b (linear representation from FIG. 12a): changes in percentages of CLIP+ B cells, left Y-axis, and quantitative depiction of increasing mean fluorescence intensity of CLIP/I-Ab staining, right Y-axis. FIG. 12c: antigen receptor engagement increases cell surface MHC class II but not ectopic CLIP. B6.129 splenocytes, untreated or treated in vitro with anti-immunoglobulin (as a surrogate for antigen) or CpG-ODN were stained with anti-mouse B220-PE versus 15G4-FITC anti-mouse CLIP/I-Ab (bars, left Y-axis) or with anti-mouse B220-PE versus anti-mouse MHC class II-FITC (I-Ab) (line graph, right Y-axis). FIG. 12d: toll ligands 9, 10 used to activate cells, listed from top down, Poly I:C, Pam3Cys, R848, LPS, CpG-ODN, and no treatment, as indicated. Shown are percentages of CLIP+ B cells in splenocytes stimulated […] from B6.129 mice, left panel; H2M-deficient mice, middle panel; Ii-deficient mice, right panel.
Total splenocytes, from either B6.129, Ii-deficient, or H2M-deficient mice were cultured with LPS for 24, 48, 72, or 96 hours as indicated. Cells were harvested and stained by two-color fluorescence using 15G4-FITC anti-mouse CLIP/I-A^b versus anti-mouse B220 PE.
Freshly isolated splenocytes, single cell suspensions of lymph node cells, resting (or activated) B cells, or primed B cells were isolated from B6.129, Ii-deficient, or H2M-deficient mice and cultured in 24 well plates in complete RPMI medium, with or without the appropriate Toll ligand, at 10^6 cells/ml. Cells were cultured for 24, 48, 72, 96, or up to 144 hours. Cells were harvested and stained by flow cytometric analysis using either a Beckman Coulter Excel or a Beckman Coulter FC500 flow cytometer. Cells were stained by two-color fluorescence using 15G4-FITC anti-mouse CLIP/I-A^b versus anti-mouse B220 PE. For co-culture experiments (5×10^5) were combined with T cells (5×10^4) in 24 well plates in complete medium, with or without the appropriate antigen. Experiments with 3A9, 2A11 or A6.A2 employed 3 mg/ml tryptic digest of HEL as a source of pre-processed antigen, i.e., peptide. Cultures were incubated overnight at […] in a humidified 5% CO2, 95% air incubator.
Multi-parameter flow cytometric analysis for the fluorescent detection of ectopic CLIP, mouse B220, human CD19 or CD20, human CLIP, human HLA-DR, and human CLIP or apoptosis were performed using a Beckman Coulter Excel or a Beckman Coulter FC500 flow cytometer (Beckman Coulter, Hialeah, Fla.). Mouse splenic cells were cultured in complete RPMI for the times indicated. Resting, primed, or activated B cells were cultured in the presence of T cells (vide supra). At the end of 16 h of culture, the cells were harvested and washed. Ethidium bromide (detected by red fluorescence) was added immediately before analysis of each tube. The cells were analyzed by first gating using forward vs. side scatter then using increased fluorescence as a measure of detection of the indicated cell surface antigens.

[3] = test system: CLIP^+ B cells in human PBMC; assay: Peptide replacement of CLIP on R848-activated human PBMC B cells; format: cell-based; conditions: PBMC of two donors cultured with R848 for 48 hours with peptide
Procedure: (§1) FIG. 13 depicts TLR activation results in ectopic CLIP expression on human B cells from peripheral blood mononuclear cells (PBMC) cultures. FIG. 13a: human PBMC from five donors were cultured for 24 hours with toll ligands (CpG-ODN, LPS, Pam3Cys, and Poly I:C) and were stained with a pan anti-HLA-DR-FITC antibody (values of isotype controls were subtracted from the specific stains, ΔMFI). FIG. 13b: cells were stained using anti-human CLIP-FITC versus CD19-PE (values of isotype controls were subtracted from the specific stains, ΔMFI). For FIGS. 13a & 13b: nil vs. CpG p=0.06821; nil vs. LPS p=0.0390; nil vs. PAM p=0.0124. FIG. 13c: cells were stained for CLIP-FITC versus CD19-PE as described for FIG. 13b. The data represent the percent of total PBMC that are CLIP+ B cells subsequent to treatment. For FIG. 13c: nil vs. CpG p=0.0058; nil vs. LPS p=0.0254. […]
(§2) PBMC were prepared from a total of seven adult normal donors, five for examining the effects of TLR binding on the percentage of ectopic CLIP^+ B cells and changes in mean fluorescence intensity of the CLIP staining resulting from TLR stimulation with CpG-ODN, LPS, Pam-3-Cys, and Poly I:C. […] Cells were analyzed using either a BD FacsCalibur, for the five samples, or a Coulter FC500 for the two tissue typed samples. […]

[4] = test system: cell surface CLIP on Raji and Daudi cells; assay: Competition of synthetic peptides with cell surface CLIP (Fitc anti-human CLIP); format: cell-based; conditions: biotinylated competing peptide
Text: Based on a computational model comparing the peptide content of TNP mixture and identifying those peptides that would have the likeliest ability to compete for the peptide/antigen binding site for MHC class II (human HLA-DR, DP, and DQ), several peptide candidates were synthesized and examined for activity. The purpose of the study was to determine if synthetic peptides can compete for binding with CLIP peptides as measured with either Fitc anti-human CLIP antibody or, comparatively in the case of biotinylated peptides, with Streptavidin.
Cell Culture Conditions: The Raji and Daudi cell lines were purchased from American Type Culture Collection, were thawed, and grown in RPMI 1640 medium supplemented with standard supplements, including 10% fetal calf serum, gentamycin, penicillin, streptomycin, sodium pyruvate, HEPES buffer, 1-glutamine, and 2-ME.
Protocol: Cells were plated into a 12 well plate with 3 mls total volume containing approximately 1.5×10^6/well for Daudi cells and 3.0×10^6/well for Raji cells. Treatment groups included no treatment as control; MKN 3 and MKN 5 at 50 microMolar final concentration based on the reported molarity of the synthesized compounds.
The cells were incubated at 37° C. in an atmosphere containing 5% CO2 and approximately 92% humidity. The cells were incubated for 4 and 24 hours. At each time point, the cells from that experimental time were harvested and stained for flow cytometric analysis of cell surface expression of CLIP (MHC Class II invariant peptide, human) by using the commercially available (Becton/Dickinson/PHarmingen) anti-human CLIP Fitc. Catalogue #555981 versus Streptavidin.
Harvested cells were stained using standard staining procedure that called for a 1:100 dilution of Fitc-anti-human CLIP or isotype control versus 1:200 dilution of the commercially prepared Streptavidin. Following staining on ice for 25 minutes, cells were washed with PBS/FCS and resuspended in 100 microliters and added to staining tubes containing 400 microliters of PBS. Samples were acquired and analyzed on a Coulter Excel Flow Cytometer.
In the Histogram analyses of FIGS. 5-7 the Y axis represents cell number of the 5000 live cells versus the X axis which is a reflection of relative Fitc fluorescence versus Streptavidin-PE (eBioscience, Cat. #12-4317) that will bind with high affinity to cell-bound biotinylated peptides. The distance between the histogram from the isotype control staining versus the histogram reflecting the specific stain and is a measure of level of cell surface CLIP or the biotinylated peptide when stained with Streptavidin on a population of live Raji or Daudi cells as indicated.

[5] = test system: Raji or Daudi cells; assay: Cell surface CLIP and CD74 levels after MKN1 (bioCLIP); format: cell-based, human
Procedure: The ability of MKN1 (bioCLIP) to alter cell surface CLIP and CD74 levels was also determined using Raji or Daudi cells.

[6] = test system: human B cells from peripheral blood mononuclear cells (PBMC); assay: TLR activation of human B cells in PBMC cultures: ectopic CLIP; format: cell-based; conditions: PBMC from five healthy donors, 24 hours, 5 μg per ml
Procedure: as §1, §2

O=CC[C@@H](O)[C@H](O)[C@H](O)CO [2-Deoxyglucose, 2-deoxy-D-glucose]
B cell surface CLIP [1]: affects B cell surface CLIP

CCOCc1nc2c(N)nc3ccccc3c2n1CC(C)(C)O [R848, imidazoquinoline resiquimod]
exogenous CLIP expression on activated mouse B cells [2]: resulted in exogenous CLIP expression on the activated mouse B cells

(S)-(2,3-bis(palmitoyloxy)-(2RS)-propyl)-N-palmitoyl-(R)-Cys-(S)-Ser(S)-Lys4-OH, trihydrochloride [Pam3Cys]
exogenous CLIP expression on activated mouse B cells [2]: resulted in exogenous CLIP expression on the activated mouse B cells

ANSGIIGDITEEVGGQY [VGV-pB]
percentage of CLIP^+ B cells and level of CLIP per B cell [3]: reduced the frequency of CLIP^+ B cells and the level of CLIP per cell in one individual but not the other

KALVQNDTLLQVKG [SEQ ID NO 1]
cell surface bound CLIP ([4]; 4 hours): small decreases in cell surface bound CLIP | cell surface bound CLIP ([4]; 24 hours): significant decreases

SGGGSKMRMATPLLMQALY (Biotin-SGGGSKMRMATPLLMQALY) [MKN1]
cell surface CLIP and CD74 levels [5]: alters cell surface CLIP and CD74 levels

lipopolysaccharide [LPS]
ectopic CLIP on human B cells [6]: Statistically significant increases in ectopic CLIP | exogenous CLIP associated with MHC class II on splenic B cells ([2]; in vitro stimulation of resting mouse splenocytes, 0 to 72 hours): time-dependent increase in exogenous CLIP associated with MHC class II | exogenous CLIP expression on activated mouse B cells [2]: resulted in exogenous CLIP expression on the activated mouse B cells

polyinosinic:polycytidylic acid [Poly I:C]
exogenous CLIP expression on activated mouse B cells [2]: resulted in exogenous CLIP expression on the activated mouse B cells
